We go through five compounds from BindingDB's records for doi:10.1016/S0960-894X(01)80865-9 (1993).

Chain of S-adenosylmethionine decarboxylase proenzyme (Escherichia coli) (P0A7F6 whole entry, looked up): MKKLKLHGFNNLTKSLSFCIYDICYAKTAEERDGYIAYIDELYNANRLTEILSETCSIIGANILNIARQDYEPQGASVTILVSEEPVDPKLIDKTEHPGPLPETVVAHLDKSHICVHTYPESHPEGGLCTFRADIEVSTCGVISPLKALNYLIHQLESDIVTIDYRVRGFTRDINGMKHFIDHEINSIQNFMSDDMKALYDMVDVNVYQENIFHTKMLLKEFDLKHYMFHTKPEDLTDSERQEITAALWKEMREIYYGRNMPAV

This test concerns the target S-adenosylmethionine decarboxylase proenzyme (Escherichia coli) (UniProt P0A7F6). In words: Tested for irreversible inhibitory activity against AdoMet-DC (S-adenosyl-methionine decarboxylase-) isolated from Escherichia coli.
In turn, `Nc1ncnc2c1ncn2[C@@H]1O[C@H](CS[C@H]2CN[C@H](C(=O)O)C2)[C@@H](O)[C@H]1O` yielded a Ki of 960 µM.

`C[S+](C[C@H]1O[C@@H](n2cnc3c(N)ncnc32)[C@H](O)[C@@H]1O)C1CCNC1` (stereo not given in full) registered a Ki of 669 µM.

`Nc1ncnc2c1ncn2[C@@H]1O[C@H](CSC2CCNC2)[C@@H](O)[C@H]1O` (stereo not given in full) displayed a Ki of 415 µM.

`Nc1ncnc2c1ncn2[C@@H]1O[C@H](CS[C@@H]2CN[C@H](C(=O)O)C2)[C@@H](O)[C@H]1O` displayed a Ki of 478 µM.

As for `C[S+](C[C@H]1O[C@@H](n2cnc3c(N)ncnc32)[C@H](O)[C@@H]1O)C1C=C[C@H](N)C1` (stereo not given in full), the Ki amounted to 18 µM.
